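Growth conditions: 96-well plates. Treatment: test compound, 48 hours, 5 concentrations. Analysis: linear interpolation between bracketing concentrations; unreached endpoints set to highest concentration. GI50: concentration for 50% inhibition of growth.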 Calls of active or inactive are those of the source. Rule as the data show it: active = GI50 up to about 1.1 µM and inactive = higher.
Columns and labels:
Assay in all cases: growth of human tumour cells (NCI), 48 h
[1] = system: OVCAR-8
[2] = system: RPMI-8226
[3] = system: HCT-116
[4] = system: MOLT-4
[5] = system: NCI/ADR-RES
[6] = system: SNB-75
[7] = system: SW-620
[8] = system: 786-0
[9] = system: A549
[10] = system: UO-31
[11] = system: TK-10
[12] = system: SK-OV-3
[13] = system: SNB-19
[14] = system: DU-145
[15] = system: NCI-H460
[16] = system: M14
[17] = system: HOP-92
[18] = system: OVCAR-3
[19] = system: MDA-N

SMILES | GI50 [1] | GI50 [2] | GI50 [3] | GI50 [4] | GI50 [5] | GI50 [6] | GI50 [7] | GI50 [8] | GI50 [9] | GI50 [10] | GI50 [11] | GI50 [12] | GI50 [13] | GI50 [14] | GI50 [15] | GI50 [16] | GI50 [17] | GI50 [18] | GI50 [19]
Cn1c2ccccc2c2c3c(c4c5ccccc5n(C)c4c21)C(=O)NC3=O | 18.7 µM (inactive) | > 51.9 µM (inactive) | > 64.1 µM (inactive) | > 100 µM (inactive) | > 45.3 µM (inactive) | 29 µM (inactive) | > 74.6 µM (inactive) | 3.89 µM (inactive) | > 19.7 µM (inactive) | > 54.2 µM (inactive) | 18.2 µM (inactive) | 5.35 µM (inactive) | 15.3 µM (inactive) | > 100 µM (inactive) | 7.6 µM (inactive) | > 41.3 µM (inactive) | > 36.7 µM (inactive) |  | 
CCOC(=O)c1c(-c2ccccc2)oc(=O)c(Cc2cccc3cccnc23)c1-c1ccccc1 | > 10 µM (inactive) | > 10 µM (inactive) | > 10 µM (inactive) | > 10 µM (inactive) | > 10 µM (inactive) | > 10 µM (inactive) | > 10 µM (inactive) | > 10 µM (inactive) | > 10 µM (inactive) | > 10 µM (inactive) | > 10 µM (inactive) | > 10 µM (inactive) | > 10 µM (inactive) | > 10 µM (inactive) | > 10 µM (inactive) | > 10 µM (inactive) | > 10 µM (inactive) | > 10 µM (inactive) | 
Cc1nc2ccccc2c(=O)n1NC(=O)Cc1ccccc1 | > 100 µM (inactive) | > 100 µM (inactive) | > 100 µM (inactive) | > 100 µM (inactive) |  | 31 µM (inactive) | > 100 µM (inactive) | > 100 µM (inactive) | > 100 µM (inactive) | > 100 µM (inactive) | > 100 µM (inactive) | > 100 µM (inactive) | > 100 µM (inactive) | > 100 µM (inactive) | > 100 µM (inactive) | > 100 µM (inactive) | > 100 µM (inactive) | > 100 µM (inactive) | > 100 µM (inactive)
C[N+]1(c2ccccc2)C=C(c2ccccc2)SC1=S (stereo not given) | > 100 µM (inactive) | 21 µM (inactive) | > 100 µM (inactive) |  | > 100 µM (inactive) |  | > 100 µM (inactive) | > 100 µM (inactive) | > 100 µM (inactive) | > 100 µM (inactive) | > 100 µM (inactive) |  | > 100 µM (inactive) | 3.9 µM (inactive) | 95.7 µM (inactive) | > 100 µM (inactive) |  | 8.22 µM (inactive) | 
Cc1cc(C)nc(NS(=O)(=O)c2ccc(NC(=O)c3ccc4nc5ccccc5c(Nc5ccc(S(N)(=O)=O)cc5)c4c3)cc2)n1 | > 100 µM (inactive) | 64.1 µM (inactive) | > 100 µM (inactive) | 50.6 µM (inactive) | > 100 µM (inactive) | > 100 µM (inactive) | > 100 µM (inactive) | > 100 µM (inactive) | > 100 µM (inactive) | > 100 µM (inactive) | > 100 µM (inactive) | > 100 µM (inactive) | > 100 µM (inactive) | > 100 µM (inactive) | > 100 µM (inactive) | > 100 µM (inactive) | 51.3 µM (inactive) | 48.5 µM (inactive) | 
OC(CC(O)(C(F)(F)F)C(F)(F)F)C(O)c1ccco1 (stereo not given) | > 10 µM (inactive) | > 10 µM (inactive) | > 10 µM (inactive) | > 10 µM (inactive) | > 10 µM (inactive) | > 10 µM (inactive) | > 10 µM (inactive) | > 10 µM (inactive) | > 10 µM (inactive) | > 10 µM (inactive) | > 10 µM (inactive) | > 10 µM (inactive) | > 10 µM (inactive) | > 10 µM (inactive) | > 10 µM (inactive) | > 10 µM (inactive) |  | > 10 µM (inactive) | > 10 µM (inactive)
c1ccc(-c2cn3nc(N4CCOCC4)sc3n2)cc1 | 31.8 µM (inactive) | > 100 µM (inactive) | > 100 µM (inactive) | > 100 µM (inactive) | > 100 µM (inactive) | 38.7 µM (inactive) | > 100 µM (inactive) | 37.4 µM (inactive) | > 100 µM (inactive) | > 100 µM (inactive) | > 100 µM (inactive) | > 100 µM (inactive) | > 100 µM (inactive) | > 100 µM (inactive) | 54.1 µM (inactive) | > 100 µM (inactive) |  | > 100 µM (inactive) | 
C=CCc1cc(OC)c(O)c(C(=O)/C=C/c2ccc(OC)c(OC)c2)c1 | > 10 µM (inactive) | 0.67 µM (active) | 14.5 µM (inactive) | 1.2 µM (inactive) |  | 22.5 µM (inactive) | 24.4 µM (inactive) | 18.2 µM (inactive) | 28.9 µM (inactive) | 15.9 µM (inactive) | 25.1 µM (inactive) | 28.5 µM (inactive) | 15.6 µM (inactive) |  | 30.1 µM (inactive) | 17 µM (inactive) |  | 19.3 µM (inactive) | 

From ChEMBL document CHEMBL1201862, “PubChem BioAssay data set” (2004)
